Data from patent US9216981B2, “Purinylpyridinylamino-2,4-difluorophenyl sulfonamide derivative, pharmaceutically acceptable salt thereof, preparation method thereof, and pharmaceutical composition with inhibitory activity against Raf kinase, containing same as active ingredient” (Medpacto, Inc., priority 2010, dated 2015).
pIC50: −log10 of the molar value.

Experiments:
A375P cell line = test: B-Raf cell activity inhibition (A375P growth inhibition, MTT assay); format: cell-based; details: A375P human melanoma, V600E mutant of B-Raf, 72 hours
Method: To check the B-Raf cell activity inhibitory capability of the compounds of the present invention, the following experiments were conducted in A375P cell line (ATCC). […] A375 cell was maintained in DMEM supplemented with 10% fetal bovine serum, glutamine (2 mM), penicillin (100 U/mL), and streptomycin (100 μg/mL). The cell was maintained at 37° C., and in 5% CO2 and 100% humidity. To conduct the growth inhibition test, the cell was plated by using a white 384-well microplate, with 1000 cells/20 μl plated per 1 well. After 24 hours, 5 μl of 5× stock solution of drug was added. All the drugs were initially prepared with 200× stock solution in DMSO, and the final concentration of DMSO was 0.5%. The cell was incubated at 37° C. for 72 hours. For MTT assay, ‘CellTiter 96 (R) Non-Radioactive Cell Proliferation Assay (G4100)’ kit by Promega Corp. was used. 15 μl of dye solution of the Promega kit was put into each well and was cultured in the incubator for 4 hours. And 100 μl of each Solubilization/Stop Solution substance of the kit was added and fixed in the incubator for 24 hours again. And then, absorbance was measured by using a 96-well plate reader with 570 nm of absorbance.

B-Raf = B-Raf (Homo sapiens (Human), UniProt P15056); test: B-Raf kinase activity (B-Raf/MEK1/MAPK2 cascade, MBP phosphorylation, [γ-32P]ATP); format: biochemical; details: activated B-Raf, inactivated MEK1, inactivated MAPK2, 30° C., 30 minutes, read-out: B-Raf Enzyme Activity
Method: To check the B-Raf kinase inhibitory activity of the compounds of the present invention, the following experiments were conducted.
20 μl of diluting solvent (20 mM MOPS, pH 7.2, 25 mM β-glycerol phosphate, 5 mM EGTA, 1 mM sodium orthovanadate, 1 mM dithiothreitol) and 10 μl of Mg/ATP mixed solution (500 μM ATP, 75 mM magnesium chloride) were added into a centrifuge tube, the derivative compound of Formula 1 was added or the compounds of the Examples were not added as a control group, and then 1 ng of activated B-Raf, 0.4 ng of inactivated MEK1, and 1 μg of inactivated MAPK2 were added. The solutions in the tube were collected on the bottom via centrifugation and were reacted at 30° C. for 30 minutes. After taking 4 μl of the mixed solution, the test proceeded to the next step.
(2) Phosphorylation of Matrix Protein MBP by MAPK2
10 μl of diluting solvent, 20 μg of MBP used as a matrix, and 10 μl of diluted [γ-32P]ATP (1 μCi/μL) were added into the 4 μl of the mixed solution obtained from (1). The solutions in the tube were collected on the bottom via centrifugation and were reacted at 30° C. for 30 minutes. And 25 μl of the reacted solution was put carefully on the center of a filter paper (2 cm×2 cm P81) for 30 seconds. Afterwards, the filter paper was cleaned with 0.75% phosphoric acid for 10 minutes three times and with acetone for 5 minutes one time. The filter paper was then moved to a scintillation vial and 5 ml of scintillation cocktail was added thereto. The inhibition rate (IC50) over B-Raf activity was measured by reading radioactivity through a scintillation counter while comparing to the control group.

B-Raf, sequence (P15056 whole entry): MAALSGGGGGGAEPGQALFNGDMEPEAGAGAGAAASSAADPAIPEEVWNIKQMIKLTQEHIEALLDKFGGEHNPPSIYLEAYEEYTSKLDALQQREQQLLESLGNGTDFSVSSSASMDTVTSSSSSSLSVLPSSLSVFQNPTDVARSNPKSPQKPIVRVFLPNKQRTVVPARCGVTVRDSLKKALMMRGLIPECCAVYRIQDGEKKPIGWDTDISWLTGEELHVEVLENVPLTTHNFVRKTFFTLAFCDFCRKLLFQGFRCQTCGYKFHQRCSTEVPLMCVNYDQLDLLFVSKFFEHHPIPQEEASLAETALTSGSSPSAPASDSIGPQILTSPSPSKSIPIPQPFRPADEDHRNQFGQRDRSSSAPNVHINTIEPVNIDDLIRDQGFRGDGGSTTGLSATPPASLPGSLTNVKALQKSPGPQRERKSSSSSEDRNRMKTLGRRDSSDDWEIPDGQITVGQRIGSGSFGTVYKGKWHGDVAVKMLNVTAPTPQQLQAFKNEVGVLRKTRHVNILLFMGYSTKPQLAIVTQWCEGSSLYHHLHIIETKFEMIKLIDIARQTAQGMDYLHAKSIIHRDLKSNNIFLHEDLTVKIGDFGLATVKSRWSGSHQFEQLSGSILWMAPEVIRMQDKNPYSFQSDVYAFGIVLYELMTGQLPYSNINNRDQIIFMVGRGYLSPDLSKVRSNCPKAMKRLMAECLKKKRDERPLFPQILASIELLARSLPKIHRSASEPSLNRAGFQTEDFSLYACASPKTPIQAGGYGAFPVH

SMILES | pIC50 (A375P cell line) | pIC50 (B-Raf)
CCCS(=O)(=O)Nc1ccc(F)c(Nc2ncccc2-c2ncnc3[nH]cnc23)c1F [Example 5, N-(3-(3-(9H-purin-6-yl)pyridin-2-ylamino)-2,4-difluorophenyl)propan-1-sulfonamide] | 6.51 | 7.64
Cc1cccc(Cl)c1S(=O)(=O)Nc1ccc(F)c(Nc2ncccc2-c2ncnc3[nH]cnc23)c1F [Example 27, N-(3-(3-(9H-purin-6-yl)pyridin-2-ylamino)-2,4-difluorophenyl)-2-chloro-6-methylbenzenesulfonamide] | 6.12 | 7.10
COC(=O)c1sccc1S(=O)(=O)Nc1ccc(F)c(Nc2ncccc2-c2ncnc3[nH]cnc23)c1F [Example 16, Methyl-3-(N-(3-(3-(9H-purin-6-yl)pyridin-2-ylamino)-2,4-difluorophenyl)sulfamoyl)thiophene-2-carboxylate] | 5.02 | 5.82
O=S(=O)(Nc1ccc(F)c(Nc2ncccc2-c2ncnc3[nH]cnc23)c1F)c1cccc2c1OCCC2 [Example 38, N-(3-(3-(9H-purin-6-yl)pyridin-2-ylamino)-2,4-difluorophenyl)chromane-8-sulfonamide] | 5.14 | 6.05
Cc1cc(S(=O)(=O)Nc2ccc(F)c(Nc3ncccc3-c3ncnc4[nH]cnc34)c2F)c(C(F)(F)F)o1 [Example 26, N-(3-(3-(9H-purin-6-yl)pyridin-2-ylamino)-2,4-difluorophenyl)-5-methyl-2-(trifluoromethyl)furan-3-sulfonamide] | 6.48 | 7.52
O=S(=O)(Nc1ccc(F)c(Nc2ncccc2-c2ncnc3[nH]cnc23)c1F)c1ccc(F)c(Cl)c1 [Example 28, N-(3-(3-(9H-purin-6-yl)pyridin-2-ylamino)-2,4-difluorophenyl)-3-chloro-4-fluorobenzenesulfonamide] | 5.71 | 6.52
Cn1cnc(S(=O)(=O)Nc2ccc(F)c(Nc3ncccc3-c3ncnc4[nH]cnc34)c2F)c1 [Example 22, N-(3-(3-(9H-purin-6-yl)pyridin-2-ylamino)-2,4-difluorophenyl)-1-methyl-1-imidazole-4-sulfonamide] | 6.00 | 5.74
CC(C)S(=O)(=O)Nc1ccc(F)c(Nc2ncccc2-c2ncnc3[nH]cnc23)c1F [Example 1, N-(3-(3-(9H-purin-6-yl)pyridin-2-ylamino)-2,4-difluorophenyl)propane-2-sulfonamide] | 6.92 | 7.77
COc1ccc(S(=O)(=O)Nc2ccc(F)c(Nc3ncccc3-c3ncnc4[nH]cnc34)c2F)cc1OC [Example 10, N-(3-(3-(9H-purin-6-yl)pyridin-2-ylamino)-2,4-difluorophenyl)-3,4-dimethoxybenzenesulfonamide] | 4.99 | 5.92
Cc1ccc(S(=O)(=O)Nc2ccc(F)c(Nc3ncccc3-c3ncnc4[nH]cnc34)c2F)o1 [Example 23, N-(3-(3-(9H-purin-6-yl)pyridin-2-ylamino)-2,4-difluorophenyl)-5-methylfuran-2-sulfonamide] | 7.22 | 7.82
O=S(=O)(Nc1ccc(F)c(Nc2ncccc2-c2ncnc3[nH]cnc23)c1F)c1ccc(C(F)(F)F)cc1 [Example 3, N-(3-(3-(9H-purin-6-yl)pyridin-2-ylamino)-2,4-difluorophenyl)-4-(trifluoromethyl)benzenesulfonamide] | 5.28 | 7.52
O=S(=O)(Nc1ccc(F)c(Nc2ncccc2-c2ncnc3[nH]cnc23)c1F)c1ccoc1 [Example 18, N-(3-(3-(9H-purin-6-yl)pyridin-2-ylamino)-2,4-difluorophenyl)furan-3-sulfonamide] | 8.70 | 9.00
Cc1nc(C)c(S(=O)(=O)Nc2ccc(F)c(Nc3ncccc3-c3ncnc4[nH]cnc34)c2F)s1 [Example 20, N-(3-(3-(9H-purin-6-yl)pyridin-2-ylamino)-2,4-difluorophenyl)-2,4-dimethylthiazole-5-sulfonamide] | 6.15 | 6.80
Cc1nc2ccc(S(=O)(=O)Nc3ccc(F)c(Nc4ncccc4-c4ncnc5[nH]cnc45)c3F)cc2s1 [Example 39, N-(3-(3-(9H-purin-6-yl)pyridin-2-ylamino)-2,4-difluorophenyl)-2-methylbenzo[d]thiazole-6-sulfonamide] | 5.53 | 6.40
O=S(=O)(Nc1ccc(F)c(Nc2ncccc2-c2ncnc3[nH]cnc23)c1F)c1cccc(Cl)c1F [Example 29, N-(3-(3-(9H-purin-6-yl)pyridin-2-ylamino)-2,4-difluorophenyl)-3-chloro-2-fluorobenzenesulfonamide] | 6.14 | 7.10
Cn1ccc2cccc(S(=O)(=O)Nc3ccc(F)c(Nc4ncccc4-c4ncnc5[nH]cnc45)c3F)c21 [Example 42, N-(3-(3-(9H-purin-6-yl)pyridin-2-ylamino)-2,4-difluorophenyl)-1-methyl-1H-indole-7-sulfonamide] | 5.23 | 6.10
O=S(=O)(Nc1ccc(F)c(Nc2ncccc2-c2ncnc3[nH]cnc23)c1F)c1cccc(Cl)c1 [Example 33, N-(3-(3-(9H-purin-6-yl)pyridin-2-ylamino)-2,4-difluorophenyl)-3-chloro benzenesulfonamide] | 6.11 | 7.10
O=S(=O)(Nc1ccc(F)c(Nc2ncccc2-c2ncnc3[nH]cnc23)c1F)c1ccc(OC(F)(F)F)cc1 [Example 12, N-(3-(3-(9H-purin-6-yl)pyridin-2-ylamino)-2,4-difluorophenyl)-4-(trifluoromethoxy)benzenesulfonamide] | 6.22 | 6.21
